{
  "source": "patent US3957788A",
  "about": "(priority 1974, dated 1976)",
  "key": {"male mice of ddN strain": {"system": "male mice of ddN strain", "experiment": "animal or person", "format": "in vivo", "conditions": "Mus musculus, read-out: D'Amour-Smith method, analgesic ED50"}, "[1]": {"system": "female mice of ddN strain", "conditions": "mouse, in vivo"}, "[2]": {"system": "male rats of Wistar strain", "experiment": "animal or person", "format": "in vivo", "conditions": "Rattus norvegicus, po, read-out: Haffner method, analgesic ED50"}},
  "note": "Like-named read-outs stand apart in the source and are kept apart here.",
  "data": [
    {"compound": "Cc1c(N(C)C)c(=O)n(-c2ccccc2)n1C", "note": "[compound 5, Aminopyrine]", "values": [
      {"measurement": "ED50", "setting": "male mice of ddN strain; po", "result": "≥ 640", "unit": "mg/kg"},
      {"measurement": "ED50", "setting": "male mice of ddN strain; sc", "result": 233, "unit": "mg/kg"},
      {"measurement": "Phenylquinone method (analgesic activity)", "setting": "[1]", "result": 53.3},
      {"measurement": "ED50", "setting": "[2]", "result": "> 2560", "unit": "mg/kg"}
    ]}
  ]
}
